Test results reported in ChEMBL document CHEMBL5523679, “Discovery of 1,2,3-triazole incorporated indole-piperazines as potent antitubercular agents: Design, synthesis, in vitro biological evaluation, molecular docking and ADME studies” (Bioorg Med Chem, 2024).

How the values were obtained:
Format in all cases: functional
[1] = tested on: Pseudomonas aeruginosa; experiment: Antibacterial activity against Pseudomonas aeruginosa assessed as inhibition zone at 75 ug/ml by diffusion method; details: read-out: IZ
[2] = tested on: Staphylococcus aureus; experiment: Antibacterial activity against Staphylococcus aureus assessed as inhibition zone at 75 ug/ml by diffusion method; details: read-out: IZ
[3] = tested on: Escherichia coli; experiment: Antibacterial activity against Escherichia coli assessed as inhibition zone at 75 ug/ml by diffusion method; details: read-out: IZ
[4] = tested on: Staphylococcus aureus; experiment: Antibacterial activity against Staphylococcus aureus assessed as inhibition zone at 50 ug/ml by diffusion method; details: read-out: IZ
[5] = tested on: Escherichia coli; experiment: Antibacterial activity against Escherichia coli assessed as inhibition zone at 50 ug/ml by diffusion method; details: read-out: IZ
[6] = tested on: Mycobacterium tuberculosis; experiment: Antimycobacterial activity against Mycobacterium tuberculosis H37Rv assessed as bacterial growth inhibition by microplate Alamar blue assay
[7] = tested on: Staphylococcus aureus; experiment: Antibacterial activity against Staphylococcus aureus assessed as inhibition zone at 25 ug/ml by diffusion method; details: read-out: IZ
[8] = tested on: Pseudomonas aeruginosa; experiment: Antibacterial activity against Pseudomonas aeruginosa assessed as inhibition zone at 50 ug/ml by diffusion method; details: read-out: IZ
[9] = tested on: Escherichia coli; experiment: Antibacterial activity against Escherichia coli assessed as inhibition zone at 25 ug/ml by diffusion method; details: read-out: IZ

Row | SMILES | zone of inhibition at 75 µg/mL [1] [mm] | zone of inhibition at 75 µg/mL [2] [mm] | zone of inhibition at 75 µg/mL [3] [mm] | zone of inhibition at 50 µg/mL [4] [mm] | zone of inhibition at 50 µg/mL [5] [mm] | MIC [6] [µM] | zone of inhibition at 25 µg/mL [7] [mm] | zone of inhibition at 50 µg/mL [8] [mm] | zone of inhibition at 25 µg/mL [9] [mm]
1 | O=C(CCc1c[nH]c2ccccc12)N1CCN(S(=O)(=O)c2ccc(Cl)cc2)CC1 | 10 | 13 | 10 | 10 | 8 | 57.8 |  |  | 
2 | Cc1ccc(C(=O)N2CCN(C(=O)Cc3c[nH]c4ccccc34)CC2)cc1 | 10 | 15 | 18 | 13 | 12 | > 120 | 12 |  | 
3 | O=C(CCc1cn(Cc2cn(Cc3ccc(F)cc3)nn2)c2ccccc12)N1CCN(C(=O)c2ccccc2)CC1 | 12 | 20 | 18 | 10 | 15 | 22.7 | 13 | 10 | 
4 | O=C(CCc1cn(Cc2ccc(F)cc2)c2ccccc12)N1CCN(S(=O)(=O)c2ccc(Cl)cc2)CC1 | 17 | 23 | 18 | 18 | 15 | 23.1 | 15 | 13 | 
5 | NNC(=O)c1ccncc1 [ISONIAZID] |  |  |  |  |  | 11.7 |  |  | 
6 | O=C(Cc1c[nH]c2ccccc12)N1CCN(C(=O)c2ccc(F)cc2)CC1 | 10 | 20 | 18 | 13 | 15 | 68.4 |  |  | 
7 | O=C(CCc1cn(Cc2ccc(F)cc2)c2ccccc12)N1CCN(S(=O)(=O)c2ccc(F)cc2)CC1 | 12 | 23 | 18 | 18 | 14 | 23.8 | 15 | 10 | 
8 | Cc1ccc(C(=O)N2CCN(C(=O)CCc3c[nH]c4ccccc34)CC2)cc1 | 15 | 15 | 15 | 13 | 13 | 66.6 | 10 | 10 | 
9 | COc1ccc(S(=O)(=O)N2CCN(C(=O)CCc3cn(Cc4cn(Cc5ccc(F)cc5)nn4)c4ccccc34)CC2)cc1 | 13 | 18 | 18 | 15 | 15 | 20.3 | 10 | 10 | 
10 | Cc1ccc(S(=O)(=O)N2CCN(C(=O)CCc3cn(Cc4ccc(F)cc4)c4ccccc34)CC2)cc1 | 10 | 23 | 18 | 18 | 15 | 48.1 | 15 |  | 
11 | O=C(CCc1cn(Cc2cn(Cc3ccc(F)cc3)nn2)c2ccccc12)N1CCN(C(=O)c2ccc([N+](=O)[O-])cc2)CC1 | 13 | 20 | 20 | 13 | 19 | 21 | 10 |  | 15
12 | NC(=O)c1cnccn1 [PYRAZINAMIDE] |  |  |  |  |  | 25.3 |  |  | 
13 | O=C(CCc1c[nH]c2ccccc12)N1CCN(C(=O)c2ccc(Cl)cc2)CC1 | 12 | 20 | 12 | 15 | 10 | 63.1 | 10 | 10 | 
14 | O=C(Cc1cn(Cc2ccc(F)cc2)c2ccccc12)N1CCN(C(=O)c2ccccc2)CC1 | 12 | 23 | 12 | 17 | 10 | > 120 | 13 | 10 | 
15 | O=C(Cc1c[nH]c2ccccc12)N1CCN(S(=O)(=O)c2ccc(F)cc2)CC1 | 13 | 20 | 18 | 15 | 15 | > 120 | 13 | 10 | 
16 | O=C(CCc1c[nH]c2ccccc12)N1CCN(C(=O)c2ccccc2)CC1 | 12 | 15 | 15 | 13 | 13 | > 120 |  | 10 | 
17 | O=C(Cc1cn(Cc2ccc(F)cc2)c2ccccc12)N1CCN(S(=O)(=O)c2ccc(F)cc2)CC1 | 18 | 20 | 18 | 18 | 13 | 24.5 | 15 |  | 
18 | O=C(CCc1cn(Cc2ccc(F)cc2)c2ccccc12)N1CCN(C(=O)c2ccccc2)CC1 | 13 | 23 | 15 | 18 | 13 | 53.2 | 15 | 10 | 
19 | O=C(CCc1c[nH]c2ccccc12)N1CCN(C(=O)c2ccc(F)cc2)CC1 | 13 | 20 | 18 | 15 | 15 | 65.9 | 13 | 10 | 
20 | O=C(Cc1c[nH]c2ccccc12)N1CCN(C(=O)c2ccc(Cl)cc2)CC1 | 15 | 20 | 12 | 15 | 10 | 65.5 | 13 | 10 | 
21 | O=C(Cc1cn(Cc2ccc(F)cc2)c2ccccc12)N1CCN(C(=O)c2ccc(Cl)cc2)CC1 | 13 | 23 | 15 | 18 | 13 | 25.5 | 13 | 10 | 
22 | O=C(Cc1cn(Cc2ccc(F)cc2)c2ccccc12)N1CCN(S(=O)(=O)c2ccc(Cl)cc2)CC1 | 13 | 22 | 18 | 18 | 15 | 23.8 | 15 |  | 
23 | Cc1ccc(S(=O)(=O)N2CCN(C(=O)Cc3cn(Cc4ccc(F)cc4)c4ccccc34)CC2)cc1 | 13 | 22 | 18 | 18 | 15 | 49.4 | 13 |  | 
